Laboratory results: ChEMBL document CHEMBL1128864, “Antitumor activities of -, -monogalactosylceramides and four diastereomers of an -galactosylceramide” (1995)

How the values were obtained:
Assay type in all cases: functional
Mus musculus [1] = assay: Percent of tumor growth inhibition ratio (TGIR)of the compound administered intraperitoneally at dose 5 mg/kg (on day 7, 11,15) in subcutaneously infected BDF1 mice on day 16; details: route subcutaneous
Mus musculus [2] = assay: Percent of tumor growth inhibition ratio (TGIR)of the compound administered intravenously at dose 5 mg/kg (on day 10, 14, 18 ) in subcutaneously infected BDF1 mice on day 16; details: route intravenous
Mus musculus [3] = assay: Percent of tumor growth inhibition ratio (TGIR)of the compound administered intravenously at dose 5 mg/kg (on day 1) in subcutaneously infected BDF1 mice on day 11; details: route intravenous
Mus musculus [4] = assay: Percent of tumor growth inhibition ratio (TGIR)of the compound administered intravenously at dose 100 ug/kg(on day 7, 11,15) in subcutaneously infected BDF1 mice on day 16
Mus musculus [5] = assay: Percent of tumor growth inhibition ratio (TGIR)of the compound administered intravenously at dose 5 mg/kg (on day 10, 14, 18 ) in subcutaneously infected BDF1 mice on day 12; details: route intravenous
Mus musculus [6] = assay: Percent of tumor growth inhibition ratio (TGIR)of the compound administered intravenously at dose 5 mg/kg (on day 1,5,9) in subcutaneously infected BDF1 mice on day 20; details: route intravenous
Mus musculus [7] = assay: Percent of tumor growth inhibition ratio (TGIR)of the compound administered intravenously at dose 5 mg/kg (on day10, 14, 18 ) in subcutaneously infected BDF1 mice on day 20; details: route intravenous
Mus musculus [8] = assay: Percent of tumor growth inhibition ratio (TGIR)of the compound administered intraperitoneally at dose 100 ug/kg(on day 1) in subcutaneously infected BDF1 mice on day 13
Mus musculus [9] = assay: Percent of tumor growth inhibition ratio (TGIR)of the compound administered intravenously at dose 5 mg/kg (on day 1) in subcutaneously infected BDF1 mice on day 22; details: route intravenous
Mus musculus [10] = assay: Percent of tumor growth inhibition ratio (TGIR)of the compound administered intravenously at dose 5 mg/kg (on day1,5,9) in subcutaneously infected BDF1 mice on day 16; details: route intravenous
Mus musculus [11] = assay: Percent of tumor growth inhibition ratio (TGIR)of the compound administered intravenously at dose 5 mg/kg (on day 1) in subcutaneously infected BDF1 mice on day 20; details: route intravenous
Mus musculus [12] = assay: Percent of tumor growth inhibition ratio (TGIR)of the compound administered intraperitoneally at dose 5 mg/kg (on day 1) in subcutaneously infected BDF1 mice on day 10; details: route subcutaneous
Mus musculus [13] = assay: Percent of tumor growth inhibition ratio (TGIR)of the compound administered intravenously at dose 5 mg/kg (on day 1) in subcutaneously infected BDF1 mice on day 18; details: route intravenous
Mus musculus [14] = assay: Percent of tumor growth inhibition ratio (TGIR)of the compound administered intraperitoneally at dose 5 mg/kg (on day 7, 11,15) in subcutaneously infected BDF1 mice on day 9; details: route subcutaneous
Mus musculus [15] = assay: Percent of tumor growth inhibition ratio (TGIR)of the compound administered intraperitoneally at dose 100 ug/kg(on day 1) in subcutaneously infected BDF1 mice on day 20
Mus musculus [16] = assay: Percent of tumor growth inhibition ratio (TGIR)of the compound administered intravenously at dose 5 mg/kg (on day 1,5,9) in subcutaneously infected BDF1 mice on day 12; details: route intravenous
Mus musculus [17] = assay: Percent of tumor growth inhibition ratio (TGIR)of the compound administered intraperitoneally at dose 100 ug/kg(on day 1) in subcutaneously infected BDF1 mice on day 12
Mus musculus [18] = assay: Percent of tumor growth inhibition ratio (TGIR)of the compound administered intravenously at dose 5 mg/kg (on day 1) in subcutaneously infected BDF1 mice on day 14; details: route intravenous
Mus musculus [19] = assay: Percent of tumor growth inhibition ratio (TGIR)of the compound administered intravenously at dose 5 mg/kg (on day 1,5,9) in subcutaneously infected BDF1 mice on day 8; details: route intravenous

With `CO[C@@]12[C@H](COC(N)=O)C3=C(C(=O)C(C)=C(N)C3=O)N1C[C@@H]1N[C@@H]12` [MITOMYCIN] the TGIR (Mus musculus [1]) was 59.7%, the TGIR (Mus musculus [2]) was 52.8% and the TGIR (Mus musculus [3]) was 8.6%. It also gave a TGIR (Mus musculus [4]) of 80%, a TGIR (Mus musculus [5]) of 38.8% and a TGIR (Mus musculus [6]) of 83.2%. The TGIR (Mus musculus [7]) was 68.1%, the TGIR (Mus musculus [8]) was 85.1% and the TGIR (Mus musculus [9]) was 60%. The TGIR (Mus musculus [10]) was 86%, the TGIR (Mus musculus [11]) was 75.1% and the TGIR (Mus musculus [12]) was 80.1%. The TGIR (Mus musculus [13]) was 51.2%, the TGIR (Mus musculus [14]) was 35.2% and the TGIR (Mus musculus [15]) was 48.6%. For the same compound, the TGIR (Mus musculus [16]) was 89.7%, the TGIR (Mus musculus [17]) was 53.9% and the TGIR (Mus musculus [18]) was 29.7%. It also gave a TGIR (Mus musculus [19]) of 90%.
